Assay results reported in US20060263305A1, “Biofilm removing agent for removing a biofilm” (priority 2003, published 2006).

How the values were obtained:
[1] = system: biofilm formed by periodontal pathogens; experiment: biofilm destruction ratio on a preformed biofilm in a glass vessel; format: cell-based, periodontal pathogens (gram-negative bacteria); conditions: 1 mg in 100 ml distilled water; biofilm formed for 24 hours; read after 24 hours; relative to distilled water alone; FIG. 1
Protocol: Periodontal pathogens were put in a glass vessel and left for 24 hours to form a biofilm. Then, a solution of a biofilm removing agent containing 1 mg of azithromycin as a medical agent dissolved in 100 ml of distilled water was supplied into the glass vessel. After lapse of 24 hours, a destruction ratio of the biofilm formed by the periodontal pathogens was examined. Further, the biofilm destruction ratio of the biofilm removing agent containing azithromycin according to this invention was evaluated in comparison with the biofilm destruction ratio of each of minocycline, erythromycin, and josamycin. Specifically, each of minocycline, erythromycin, and josamycin was supplied together with distilled water into a glass vessel in which the biofilm was formed. After lapse of 24 hours, the destruction ratio of the biofilm formed by the periodontal pathogens was examined. The content of each of minocycline, erythromycin, and josamycin in the distilled water was equal to that of the biofilm removing agent containing azithromycin. […] In FIG. 1, the biofilm destruction ratio by each of azithromycin, minocycline, erythromycin, and josamycin is a ratio of a destroyed or lost part of the biofilm with respect to a biofilm formed by the periodontal pathogens and supplied with distilled water alone without any antibiotic.

[2] = system: biofilm formed by periodontal pathogens; experiment: biofilm inhibition ratio (inhibiting formation of the biofilm) in a glass vessel; format: cell-based, periodontal pathogens (gram-negative bacteria); conditions: 1 mg in 100 ml distilled water, added together with the pathogens; read after 24 hours; relative to distilled water alone; FIG. 2
Protocol: Periodontal pathogens were put in a glass vessel together with a biofilm removing agent containing 1 mg of azithromycin as a medical agent dissolved in 100 ml of distilled water. After lapse of 24 hours, an inhibition ratio of the biofilm to be formed by the periodontal pathogens was examined.
Further, the biofilm inhibition ratio of the biofilm removing agent containing azithromycin according to this invention was evaluated in comparison with the biofilm inhibition ration of each of minocycline, erythromycin, and josamycin. Specifically, each of minocycline, erythromycin, and josamycin was put into a glass vessel together with periodontal pathogens and distilled water. After lapse of 24 hours, the biofilm inhibition ratio of the biofilm formed by the periodontal pathogens was examined.
The content of each of minocycline, erythromycin, and josamycin in the distilled water was equal to that of the biofilm removing agent containing azithromycin.
In FIG. 2, the biofilm inhibition ratio of each of azithromycin, minocycline, erythromycin, and josamycin is a ratio of a part without the biofilm with respect to an entire biofilm formed by the periodontal pathogens in presence of distilled water alone without any antibiotic.

[3] = compared with 14-membered ring macrolide antibiotics; stated without a test; cited from earlier work
[4] = system: hepatic metabolic enzymes; conditions: compared with 14-membered ring macrolide antibiotics; stated without a test; cited from earlier work
[5] = compared with 14-membered ring macrolide antibiotics; stated without a test; cited from earlier work; remark: listed apart in the source

SMILES	biofilm destruction ratio (destruction ratio of gram-negative bacteria) [1]	biofilm inhibition ratio (adhesion prevention ratio of gram-negative bacteria) [2]	stability against gastric acid [3]	activation of hepatic metabolic enzymes [4]	digestive side effect [5]
CC[C@H]1OC(=O)[C@H](C)[C@@H](O[C@H]2C[C@@](C)(OC)[C@@H](O)[C@H](C)O2)[C@H](C)[C@@H](O[C@@H]2O[C@H](C)C[C@H](N(C)C)[C@H]2O)[C@](C)(O)C[C@@H](C)CN(C)[C@H](C)[C@@H](O)[C@]1(C)O [azithromycin]	about 60%	about 45%	considerably stable	extremely small level	equivalent
CC[C@H]1OC(=O)[C@H](C)[C@@H](O[C@H]2C[C@@](C)(OC)[C@@H](O)[C@H](C)O2)[C@H](C)[C@@H](O[C@@H]2O[C@H](C)C[C@H](N(C)C)[C@H]2O)[C@](C)(O)C[C@@H](C)C(=O)[C@H](C)[C@@H](O)[C@]1(C)O [erythromycin]	about 35%	about 40%	–	–	–
CO[C@@H]1[C@@H](O[C@@H]2O[C@H](C)[C@@H](O[C@H]3C[C@@](C)(O)[C@@H](OC(=O)CC(C)C)[C@H](C)O3)[C@H](N(C)C)[C@H]2O)[C@@H](CC=O)C[C@@H](C)[C@@H](O)/C=C/C=C/C[C@@H](C)OC(=O)C[C@H]1OC(C)=O [josamycin]	about 25%	about 35%	–	–	–
CN(C)c1ccc(O)c2c1C[C@H]1C[C@H]3[C@H](N(C)C)C(O)=C(C(N)=O)C(=O)[C@@]3(O)C(O)=C1C2=O [minocycline]	about 10%	about 23%	–	–	–
